Several values for one entry are separate records, joined by “and”; a condition that tells them apart may be missing. Equal entries are not always repeated.
Legend:
[1] = tested on: Human umbilical vein endothelial cells (HUVEC); assay: HUVEC cluster sprouting in collagen gel (Example 1 in vitro model); format: cell-based; settings: for sprout length versus cells receiving VEGF only: co-administered with VEGF
Procedure: Human umbilical vein endothelial cells (HUVEC) were used to evaluate various gamma-secretase inhibitors for potential angiogenesis effect. A 72 cm2 flask of confluent cells (1.5-2 E6 cells) was trypsinized with 3.5 ml trypsin/EDTA. After a maximum of 3 minutes, the cells were rinsed with 1.5 ml serum then centrifuged at 200 g for 3 minutes. After centrifugation, the supernatant was discarded and the cells resuspended in medium (endothelial cell growth medium (Promocell) with additional 10% serum). Cell concentration was diluted to 2.0×10^4 cells/ml in medium supplemented with 20% methocel stock solution. The cells were clustered in hanging drops of 20 μl (400 cells) overnight.
To imbed the cells in gel, the drops were first rinsed with PBS. The clusters were centrifuged at 200 g for 3 minutes and the supernatant removed. Centrifuge tubes were then briefly drawn over a rough surface to loosen the pellet. The clusters were resuspended in ice cold methocel stock solution supplemented with 20% protein. An equal amount of collagen I-gel at 3 mg/ml (Becton-Dickinson) was carefully mixed with the cells. Immediately thereafter, 1000 μl of the gel/cell cluster mixture was added to each well of a preheated (37° C.) 24-well plate. The plate was incubated for 30 minutes at 37° C., 5% CO2 and 100% humidity. One hundred μl of medium, along with the desired test substance and optionally 2.5 μl of 10 μg/ml VEGF were added to each well to a final concentration in the top medium of 250 ng/ml and 25 ng/ml in the well. Negative control cells received medium only and positive control cells received medium and VEGF only. The wells without gel were given 1 ml PBS.
To quantify the results, ten clusters from each […] were photographed. The length of the five longest sprouts on each cluster was measured, and the sum of the sprout length from each cluster calculated. Average values from ten clusters were obtained.
The above-mentioned methocel stock solution was prepared by autoclaving 6 grams of pure methyl cellulose powder (Sigma) in a 500 ml flask containing a magnetic stirrer. After autoclaving the methyl cellulose was dissolved in 250 ml of basal medium preheated to 60° C. for 20 minutes. An additional 250 ml of basal medium at room temperature was added to a final volume of 500 ml and the solution stirred overnight. Finally, the stock solution was aliquotted and cleared through centrifugation at 5000g for 2 hours at room temperature. The 90-95% of the material which became the clear, highly viscous supernatant was used.

HUVEC spheroids = assay: HUVEC spheroid sprouting, cumulative sprout length (Example 5 modified in vitro model); format: cell-based, Human; settings: for sprout length versus control across concentrations: 100, 20, 4, 0.8, 0.16, 0.032 μM
Procedure: Similar to the approach described in Example 1, two further compounds were evaluated for their ability to initiate or increase angiogenesis. HUVEC spheroids were prepared by pipetting 400 HUVE cells (PromoCell, Heidelberg, Germany, cultured according to supplier's instructions) into each well of non-adhesive 96-well plates and allowed to aggregate overnight. After harvesting, 48 spheroids were seeded in 900 μl of methocel-collagen solution and pipetted into individual wells in a 24-well plate, allowing for collagen gel polymerization. After 30 minutes, freshly-prepared test compounds were added (prepared by dissolving lyophilized compound at a concentration of 10 mM in DMSO, specific concentrations administered described below) by pipetting 100 μl of a 10-fold concentrated working dilution on top of the gel. At the end of the incubation period the dishes were fixed for 24 hours at 37° C. with paraformaldehyde.
Sprouting intensity of endothelial cells was quantitated by an image analysis system determining the cumulative sprout length per spheroid using an Olympus IX50 inverted microscope and Olympus image analysis software. The mean of the cumulative sprout length of 10 randomly selected spheroids was analyzed as an individual data point.

[2] = tested on: Oxygen-induced retinopathy mice; assay: Oxygen-induced retinopathy mouse model, retinal whole mount analysis; format: in vivo
From the text: Oxygen-induced retinopathy mice were used to determine the extent and effect of gamma-secretase inhibitors on the angiogenic process. Mice with oxygen induced retinopathy (OIR mice) are a commonly-used model and are described in the literature (see, Smith et al, supra). They are at times referred to as retinopathy of prematurity models or ROP mice. The model takes advantage of the fact that full term mice pups are born with an immature retinal vascularization which matures during the first three weeks of postnatal growth. Briefly, neonatal mice (NMRI/C57b1) from the same litter were placed, with their nursing mother, in a hyperoxic environment (75% oxygen) at age day seven. After exposure to the hyperoxic environment for 5 days, the 12-day old pups were removed to normal air. In the treated mice, DAPT was administered once daily during age days 12-16. Control pups were treated the same way but injected with the vehicle. At post natal day 17 the mice were euthanized and the retinas were prepared for whole mount immunohistochemistry. Except for the mode of injection, the stock solution of DAPT was prepared and administered essentially as described in Lanz et al., (2003, J. Pharmacol. Exp. Ther. 305:864-71). In short, 5 mg DAPT was dissolved in 25 μl 99.5% EtOH and then dissolved in 475 μl Corn oil (Sigma, Catalog No. C8267). If precipitate formed, the solution was heated to 70° C. for 2-3 minutes. The pups were injected subcutaneously once a day according to: V(μl)=weight (g)*10, that is, 100 mg DAPT/kg body weight. Control pups were injected subcutaneously once a day with the same amount of vehicle (i.e. 5% EtOH in corn oil). Eyes were fixed in 4% PFA in PBS at 4° C. overnight and washed in PBS. […] This can be quantified in the superficial capillary plexus by counting the number of capillary enclosed areas in the peripheral part of the retina.

new born mice = assay: Physiological retinal angiogenesis in new born (non-OIR) mice; format: in vivo; settings: administered postnatal days 3 and 4, retinas analysed day 5
Procedure: To investigate if the increased retinal vascularization after DAPT treatment was restricted to the OIR, the effect of DAPT on physiological angiogenesis in new born mice was investigated. DAPT was administered to new born mice on postnatal days 3 and 4 and retinas were analyzed at day 5 as described above. […] This can be observed by comparing the degree of vascularization in the retina of control animals, FIGS. 20 and 21, with that of treated animals as shown in FIGS. 22 and 23. Except for the increased vascular density, the vascular architecture was normal. The growth of the vascular network towards the periphery and the arterio-venous specification were intact for DAPT-treated mice as with controls.

[3] = 100 μM test compound co-administered with 25 ng/ml VEGF-A
[4] = 100 μM test compound, no VEGF-A

## CC1(C)[C@@H]2CC[C@@](C)(C2)[C@@H]1NS(=O)(=O)c1ccc(F)cc1 [1-(S)-endo-N-(1,3,3)-Trimethylbicyclo[2.2.1]hept-2-yl)-4-fluorophenyl Sulfonamide]
[1]; 0.16 μM test compound, no VEGF
  average sprout length: 280 μm
[1]; 0.16 μM, no VEGF
  increase in length versus control cells: 100%
[1]; 20 μM test compound co-administered with VEGF
  average sprout length: 480 μm

## C[C@H](NC(=O)C(O)c1cc(F)cc(F)c1)C(=O)N[C@H]1N=C(c2ccccc2)c2ccccc2N(C)C1=O (stereo partly drawn) [Compound X, S-3-[N′-(3,5-difluorophenyl-alpha-hydroxyacetyl)-L-alanilyl]amino-2,3-dihydro-1-methyl-5-phenyl-1H-1,4-benzodiazepin-2-one]
HUVEC spheroids; 4 μM test compound co-administered with VEGF-A
  sprouting versus VEGF-A only: increase the sprouting significantly
HUVEC spheroids; [3]
  cumulative length of all sprouts (CSL): 4289 μm
HUVEC spheroids; [4]
  cumulative length of all sprouts (CSL): 1630 μm
HUVEC spheroids; no VEGF-A
  sprout length versus control across concentrations: Only the two lowest concentrations tested failed to produce longer sprouts that control

## C[C@H](NC(=O)Cc1cc(F)cc(F)c1)C(=O)N[C@H](C(=O)OC(C)(C)C)c1ccccc1 [DAPT]
[2]; 100 mg/kg s.c. once daily days 12-16, analysed day 17
  avascular zones in the central retina: almost completely lack the vascular-free zones
[2]; 100 mg/kg s.c. once daily days 12-16, day 17, versus vehicle control
  number of capillary enclosed areas in the peripheral retina: near doubling
[2]; 100 mg/kg s.c. once daily days 12-16, versus control
  vascular (capillary) tufts in retina: significant reduction in capillary tufts
[1]; 0.08 μM test compound, no VEGF, +/- SEM
  average sprout length: 330+/−28 μm
[1]; 0.4 μm DAPT co-administered with VEGF
  average sprout length: 550+/−32 μm
[1]; DAPT 0.4, 2, 10 and 50, no VEGF, versus 0.08 μM
  sprout length at increasing levels: further increases in sprout length
[1]
  sprout length versus cells receiving VEGF only: increases in sprout length over those with VEGF alone
New born mice
  peripheral retinal vascular density: increased peripheral vascular density
  vascular architecture of retina: normal

## CC(C)[C@H](O)C(=O)N[C@@H](C)C(=O)N[C@@H]1C(=O)N(C)CCc2ccccc21 [LY-450, 139, (N)—[(S)-2-hydroxy-3-methyl-butyryl]-1-(L-alaninyl)-(S)-1-amino-3-methyl-4,5,6,7-tetrahydro-2H-3-benzazepin-2-one]
HUVEC spheroids; [3]
  cumulative length of all sprouts (CSL): 3521 μm
HUVEC spheroids; [4]
  cumulative length of all sprouts (CSL): 1730 μm
HUVEC spheroids; no VEGF-A
  sprout length versus control across concentrations: lower concentrations were not found to be effective
HUVEC spheroids; 100 to 0.032 μM co-administered with 25 ng/ml VEGF-A
  sprout length versus VEGF-A only across concentrations: Only the lowest concentration tested failed to produce longer sprouts that VEGF-A

## COC(=O)[C@@H](NC(=O)[C@H](CC(C)C)NC(=O)N(Cc1ccccc1)C[C@@H](O)[C@H](Cc1ccccc1)NC(=O)OC(C)(C)C)C(C)C [WPE-III-31C]
[1]; 0.16 μM test compound co-administered with VEGF
  average sprout length: 410 μm
[1]; 0.16 μM test compound, no VEGF
  average sprout length: 230 μm
[1]; WPE-III-31C 0.16, 0.8 and 4 μM, no VEGF
  sprout length at increasing concentrations: only increased with increasing concentrations
[1]
  sprout length versus cells receiving VEGF only: significantly longer sprout lengths than the control cells

## VEGF
[1]; VEGF only (positive control), 25 ng/ml in the well
  average sprout length: 460 μm and 370 μm and 320 μm
HUVEC spheroids; VEGF-A only, 25 ng/ml
  cumulative length of all sprouts (CSL): 1794 μm and 1860+/−100 μm

Reference: patent US20090209473A1, “Componds and methods for pormoting angiogenesis” (priority 2003, published 2009)
